In patent US20060258647A1, “Treatment of maladaptive substance use with cholecystokinin (CCK) antagonists” (The Regents of the University of California, priority 2005, published 2006):
Entries after “also recorded” stand apart in the source; their conditions may differ.

Key:
Sprague-Dawley rats [1] = assay: Expression of morphine conditioned place preference (CPP) after systemic administration; assay type: in vivo, rat; settings: 1 mg/kg systemic (i.p.)
Method: (§1) 68 male Sprague-Dawley rats (Charles River, Wilmington, Mass.) weighing 275-300 grams at the onset of the study were individually housed in a temperature controlled environment (70° F.) and kept on a 12 hour light/dark cycle. Rat chow and water were available ad libitum. Animals were tested at the same time during their light cycle each day. All experimental protocols were approved by the Institutional Animal Care and Use Committee and were conducted in accordance with the Guide for the Care and Use of Laboratory Animals (N1H). 22 rats were used for systemic injections and the remaining rats were cannulated for NAcc microinjections.
Animals were trained in 3 chamber place conditioning boxes (Med Associates) in which 2 chambers (28×21×21 cm) that differed in color (one black, one white), light level, and texture were separated by a neutral gray chamber (12×21×21). During the initial baseline period, animals were placed in the central chamber and were allowed to freely explore all 3 chambers for a period of 30 minutes. Beam breaks, entries, and time spent in each chamber were automatically recorded using infrared beams. […] During each conditioning session, animals were injected with either morphine or saline and were then immediately confined to one of the two larger chambers for 60 minutes. Rats received 2 conditioning sessions per day for a period of 4 days. Conditioning sessions were separated by a minimum period of 5 hours. Animals were tested for expression of conditioned place preference 1 day after the final conditioning session. Drug side and order were counter-balanced. […] Systemic L-365, 260 was administered 30 minutes before the onset of CPP testing. […]
*Difference scores were calculated by subtracting the time spent in the saline paired chamber from the time spent in the morphine paired chamber during a test session. […]

Sprague-Dawley rats [2] = assay: Expression of morphine CPP after microinjection into anterior or posterior nucleus accumbens (NAcc); assay type: in vivo, rat; settings: CCK-4 10 ng, CCK-8 100 ng (legend 10 ng), raclopride 4 μg; for expression of morphine CPP, microinjected independently into anterior NAcc: L-365, 260 1 ng (p=0.002), SCH-23390 2 μg; for expression of morphine CPP, microinjected independently into anterior NAcc / expression of morphine CPP, microinjected independently into posterior NAcc: lorglumide 15 ng; for expression of morphine CPP, microinjected independently into posterior NAcc: L-365, 260 1 ng (p=0.021), SCH-23390 2 μg (p=0.049); for effect of co-injection on the L-365, 260 effect (attenuation) on morphine CPP, anterior NAcc: co-injected with L-365, 260 into anterior NAcc; for effect of co-injection on the L-365, 260 effect (potentiation) on morphine CPP, posterior NAcc: co-injected with L-365, 260 into posterior NAcc
Method: as §1
Animals were anesthetized with a ketamine-xylazine mixture and maintained on isoflurane (0.5 liter/min) as needed for the duration of surgery. Animals were placed in a stereotaxic frame and were implanted with bilateral 26-gauge stainless steel chronic guide cannulae (Plastics One, Roanoke, V A) into either the Anterior (AP, 2.2; ML, ±1.1; DV, −5.5) or Posterior (AP, 1.2; ML, ±1.1; DV, −5.5) NAcc. Cannulae were secured to the skull with dental cement. At the end of the surgical procedure, animals were treated with penicillin and topical antibiotics. A stainless steel dummy cannula (Plastics One) was inserted into each guide cannula and remained in place when the guide cannulae were not in use. Animals were allowed a 1-week recovery period prior to behavioral testing.
Animals were trained in 3 chamber place conditioning boxes (Med Associates) in which 2 chambers (28×21×21 cm) that differed in color (one black, one white), light level, and texture were separated by a neutral gray chamber (12×21×21). During the initial baseline period, animals were placed in the central chamber and were allowed to freely explore all 3 chambers for a period of 30 minutes. Beam breaks, entries, and time spent in each chamber were automatically recorded using infrared beams. […] During each conditioning session, animals were injected with either morphine or saline and were then immediately confined to one of the two larger chambers for 60 minutes. Rats received 2 conditioning sessions per day for a period of 4 days. Conditioning sessions were separated by a minimum period of 5 hours. Animals were tested for expression of conditioned place preference 1 day after the final conditioning session. Drug side and order were counter-balanced. […] Systemic L-365, 260 was administered 30 minutes before the onset of CPP testing.
All injection sites were based on the atlas of Paxinos and Watson (1998). Bilateral injections were made into either the Anterior (AP, 2.2; ML, +1.1; DV, −5.5) or Posterior (AP, 1.2; ML, ±1.1; DV, −5.5) NAcc. Each injection was made using a 1 μl syringe (Hamilton, Reno, Nev.) attached to 20 cm of PE 50 tubing connected to a 33-gauge injection cannula (Plastics One). Microinjections were given at a rate of 0.5 μl per minute using a syringe pump (kd Scientific, Holliston, M A). A volume of 0.5 μl was injected into each side of the NAcc. Injection cannulae extended 2 mm beyond guide cannulae and were left in place for 1 minute following microinjections to minimize the backflow of drug solution. 10 minutes after microinjection was completed, animals were placed into the central CPP chamber and allowed to explore for a period of 30 minutes. Animals received a maximum of four bilateral NAcc microinjections. The number of microinjections each animal received was determined by the persistence of place preference. […] Microinjection drug order was counterbalanced and began a minimum of one day following the test for expression of morphine CPP. Animals were tested for baseline expression of morphine CPP 24 hours following each microinjection to ensure the return to pre-injection baseline. At the conclusion of the experiment, animals were anesthetized with pentobarbital and perfused intracardially through the ascending aorta with 0.1M phosphate buffered saline followed by 10% formalin. […]

[3] = Jackson et al., 1994; cited from earlier work
humans = settings: literature (Murphy et al., 1993 and others); cited from earlier work
Rats = assay: Ethanol consumption / reinstatement with foot shock; assay type: in vivo, rat
Method: Rats (n=18) were administered 3 daily doses of systemic L-365 (1 mg/kg) prior to a one-hour ethanol (10%) access session. On the second day of L-365, 260 administration, animals were administered 0.8 mA of shock (0.5 seconds every 40 seconds for a period of 15 minutes) in ethanol access chambers directly prior to the onset of their one-hour access session. […] This was a randomized cross over design with each animal serving as its own control.
L-365, 260 had no effect on ethanol consumption when shock was administered during extinction (n=12). Animals were administered 3 daily doses of systemic L-365, 260 after ethanol consumption was extinguished. On the second day of L-365, 260 administration, animals were administered 0.8 mA of shock (0.5 seconds every 40 seconds for a period of 15 minutes) in the ethanol access chambers directly prior to the onset of their one-hour extinction session. This was a randomized cross over design with each animal serving as its own control.
L-365 had no effect on ethanol reinstatement when shock was administered on the first day of re-initiation of ethanol access (n=12). Animals were administered 3 daily doses of systemic L-365, 260 after ethanol consumption was extinguished. On the first day of L-365, 260 administration, animals were administered 0.8 mA of shock (0.5 seconds every 40 seconds for a period of 15 minutes) in the ethanol access chambers directly prior to the onset of their one-hour reinstatement session. This was a randomized cross over design with each animal serving as its own control.

Compound | expression of morphine CPP (Sprague-Dawley rats [1]; after acquisition of CPP, tested immediately after injection, p=0.006) | expression of morphine CPP (Sprague-Dawley rats [1]; tested 24 hours after injection, p=0.0009) | expression of morphine CPP (Sprague-Dawley rats [1]; tested 72 hours after injection, p=0.004) | expression of morphine CPP, microinjected independently into anterior NAcc (Sprague-Dawley rats [2]) | expression of morphine CPP, microinjected independently into posterior NAcc (Sprague-Dawley rats [2]) | differentiation from saline in animal discrimination studies [3] | side effects on administration to humans (humans) | ethanol consumption on the two days following shock (Rats; 3 daily systemic doses 1 mg/kg before one-hour ethanol (10%) access, 0.8 mA shock on second day, n=18, vs saline controls) | ethanol consumption when shock was administered during extinction (Rats; 3 daily systemic doses after ethanol consumption was extinguished, shock on second day, n=12) | ethanol reinstatement when shock was administered on the first day of re-initiation of ethanol access (Rats; 3 daily systemic doses after extinction, shock on first day, n=12) | expression of morphine CPP, microinjected independently into anterior NAcc (Sprague-Dawley rats [2]; listed as Lorglumide) | expression of morphine CPP, microinjected independently into posterior NAcc (Sprague-Dawley rats [2]; listed as Lorglumide) | expression of morphine CPP, microinjected independently into anterior NAcc (Sprague-Dawley rats [2]; listed as Raclopride) | effect of co-injection on the L-365, 260 effect (attenuation) on morphine CPP, anterior NAcc (Sprague-Dawley rats [2]) | effect of co-injection on the L-365, 260 effect (potentiation) on morphine CPP, posterior NAcc (Sprague-Dawley rats [2]) | expression of morphine CPP, microinjected independently into posterior NAcc (Sprague-Dawley rats [2]; listed as Raclopride)
Cc1cccc(NC(=O)N[C@@H]2N=C(c3ccccc3)c3ccccc3N(C)C2=O)c1 [L-365, 260, (3R-(+)-2,3-dihydro-1-methyl-2-oxo-5-phenyl-1H-1,4-benzodiazepin-3-yl)-N′-(3-methylphenyl)urea] | attenuates | attenuates | attenuates | attenuates | potentiates | cannot be differentiated from saline | no significant side effects | consumed significantly less ethanol than saline controls | had no effect | had no effect |  |  |  |  |  | 
CCCCCN(CCCCC)C(=O)C(CCC(=O)O)NC(=O)c1ccc(Cl)c(Cl)c1 (stereo not shown) [lorglumide] |  |  |  | has no effect | has no effect |  |  |  |  |  | had no effect | had no effect |  |  |  | 
CCN1CCC[C@H]1CNC(=O)c1c(O)c(Cl)cc(Cl)c1OC [raclopride] |  |  |  | has no effect | has no effect |  |  |  |  |  |  |  | had no effect | reverse the effects of L-365, 260 | reverse the effects of L-365, 260 | had no effect
CCK-4 |  |  |  | neither of which had an effect; also recorded: neither of which has an effect | neither of which had an effect; also recorded: neither of which has an effect |  |  |  |  |  |  |  |  | reversed | reversed | 
CCK-8: cholecystokinin peptide, CCKB receptor ligand precursor, obtained from Research Biochemicals |  |  |  | neither of which had an effect; also recorded: neither of which has an effect | neither of which had an effect; also recorded: neither of which has an effect |  |  |  |  |  |  |  |  | reversed | reversed | 
